Results from ChEMBL document CHEMBL5346894, “Developments of PROTACs technology in immune-related diseases” (Eur J Med Chem, 2023).

Columns and labels:
[1] = target: E3 ubiquitin-protein ligase XIAP/Receptor-interacting serine/threonine-protein kinase 2 (Homo sapiens, UniProt P98170+O43353); assay: Protac activity at IAP/RIPK2 in human THP-1 cells assessed as degradation of RIPK2 measured after 18 hrs by capillary immunoassay; type: cell-based
[2] = target: Protein cereblon/Receptor-interacting serine/threonine-protein kinase 2 (Homo sapiens, UniProt O43353+Q96SW2); assay: Protac activity at CRBN/RIPK2 in human THP-1 cells assessed as degradation of RIPK2 measured after 18 hrs by capillary immunoassay; type: cell-based
[3] = target: Protein cereblon/Indoleamine 2,3-dioxygenase 1 (Homo sapiens) (UniProt P14902+Q96SW2); assay: Protac activity at CRBN/IDO1 in human HeLa cell assessed as degradation of IDO1 measured after 24 hrs by Western blot assay relative to control; type: cell-based
[4] = system: HeLa; assay: Anticancer activity against human HeLa cells assessed as cell growth inhibition measured after 24 hrs by MTT assay; type: functional, cell-based
[5] = target: T1, von Hippel-Lindau disease tumor suppressor/Histone deacetylase 3 (Homo sapiens, UniProt O15379+P40337); assay: Protac activity at VHL/HDAC3 in human MDA-MB-468 cells assessed as HDAC3 degradation measured after 14 hrs by Western blot analysis; type: cell-based
Target sequence in this assay (O15379 whole entry): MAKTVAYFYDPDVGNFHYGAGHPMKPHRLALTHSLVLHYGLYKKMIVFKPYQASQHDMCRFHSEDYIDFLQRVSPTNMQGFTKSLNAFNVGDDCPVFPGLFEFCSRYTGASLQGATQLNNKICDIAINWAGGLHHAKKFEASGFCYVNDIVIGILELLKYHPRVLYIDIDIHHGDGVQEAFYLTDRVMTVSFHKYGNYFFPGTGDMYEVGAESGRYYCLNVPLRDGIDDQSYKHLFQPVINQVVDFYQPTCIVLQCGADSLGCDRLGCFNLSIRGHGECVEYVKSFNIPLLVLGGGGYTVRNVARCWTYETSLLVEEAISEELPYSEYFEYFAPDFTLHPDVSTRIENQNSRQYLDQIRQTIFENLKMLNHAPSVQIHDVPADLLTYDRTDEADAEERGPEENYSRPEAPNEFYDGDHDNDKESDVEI
Target sequence in this assay (P40337 whole entry): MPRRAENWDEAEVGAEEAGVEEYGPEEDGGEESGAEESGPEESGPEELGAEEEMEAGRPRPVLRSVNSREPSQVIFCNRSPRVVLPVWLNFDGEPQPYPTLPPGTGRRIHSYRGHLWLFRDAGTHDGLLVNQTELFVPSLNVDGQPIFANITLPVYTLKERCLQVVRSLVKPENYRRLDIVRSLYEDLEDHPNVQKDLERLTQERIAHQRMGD

[6] = target: T1, von Hippel-Lindau disease tumor suppressor/Histone deacetylase 3; assay: Protac activity at VHL/HDAC3 in human MDA-MB-468 cells assessed as HDAC3 degradation at 125 nM measured after 8 hrs by Western blot analysis relative to control; type: cell-based
Target sequence in this assay (O15379 whole entry, looked up): as the sequence (O15379 whole entry) above
Target sequence in this assay (P40337 whole entry, looked up): as the sequence (P40337 whole entry) above

[7] = target: von Hippel-Lindau disease tumor suppressor/Interleukin-1 receptor-associated kinase 4 (Homo sapiens, UniProt Q9NWZ3+P40337); assay: Protac activity at VHL/IRAK4 in human HEK293T cells assessed as IRAK4 degradation measured after 24 hrs by immunoblotting analysis; type: cell-based
[8] = target: Protein cereblon (Homo sapiens, UniProt Q96SW2); assay: Binding affinity to CRBN (unknown origin) assessed as dissociation constant by Tr-FRET assay
[9] = target: Protein cereblon/Poly [ADP-ribose] polymerase 1 (Homo sapiens) (UniProt P09874+Q96SW2); assay: Protac activity at CRBN/PARP1 in human SW620 cells assessed as degradation of PARP1 at <100 nM measured after 24 hrs by Western blot analysis relative to control; type: cell-based
[10] = target: Protein cereblon/Histone acetyltransferase KAT2B (Homo sapiens) (UniProt Q92831+Q96SW2); assay: Protac activity at CRBN/PCAF in human THP-1 cells assessed as PCAF degradation at 1.5 nM measured after 10 mins by Western blot analysis relative to control; type: cell-based
[11] = target: Protein cereblon/Histone acetyltransferase KAT2A (Homo sapiens) (UniProt Q92830+Q96SW2); assay: Protac activity at CRBN/GCN5 in human THP-1 cells assessed as GCN5 degradation at 3 nM measured after 10 mins by Western blot analysis relative to control; type: cell-based
Sequence of Protein cereblon/Histone acetyltransferase KAT2A (Homo sapiens) (Q92830 2-837 limits assumed): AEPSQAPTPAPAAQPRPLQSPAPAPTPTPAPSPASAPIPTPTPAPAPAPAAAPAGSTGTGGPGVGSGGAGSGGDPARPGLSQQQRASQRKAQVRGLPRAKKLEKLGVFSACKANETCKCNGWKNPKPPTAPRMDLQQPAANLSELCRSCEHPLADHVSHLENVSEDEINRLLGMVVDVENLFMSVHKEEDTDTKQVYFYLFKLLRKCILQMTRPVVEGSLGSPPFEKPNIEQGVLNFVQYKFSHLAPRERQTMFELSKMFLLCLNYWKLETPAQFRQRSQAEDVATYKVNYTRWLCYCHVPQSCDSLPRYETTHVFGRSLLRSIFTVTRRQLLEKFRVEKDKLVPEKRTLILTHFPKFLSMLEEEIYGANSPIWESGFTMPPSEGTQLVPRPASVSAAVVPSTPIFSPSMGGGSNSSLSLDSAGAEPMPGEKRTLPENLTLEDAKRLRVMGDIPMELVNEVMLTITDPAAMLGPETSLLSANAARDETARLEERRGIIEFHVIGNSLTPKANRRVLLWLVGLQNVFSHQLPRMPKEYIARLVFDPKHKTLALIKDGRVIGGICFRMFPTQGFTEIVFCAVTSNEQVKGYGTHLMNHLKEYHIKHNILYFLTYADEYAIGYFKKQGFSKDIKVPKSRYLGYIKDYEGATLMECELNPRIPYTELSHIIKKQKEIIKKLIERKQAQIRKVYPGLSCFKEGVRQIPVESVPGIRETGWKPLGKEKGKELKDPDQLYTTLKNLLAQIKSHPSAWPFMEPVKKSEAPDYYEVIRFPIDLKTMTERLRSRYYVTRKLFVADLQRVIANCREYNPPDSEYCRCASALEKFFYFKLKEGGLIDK
Sequence of Protein cereblon/Histone acetyltransferase KAT2A (Homo sapiens) (Q96SW2 whole entry partner): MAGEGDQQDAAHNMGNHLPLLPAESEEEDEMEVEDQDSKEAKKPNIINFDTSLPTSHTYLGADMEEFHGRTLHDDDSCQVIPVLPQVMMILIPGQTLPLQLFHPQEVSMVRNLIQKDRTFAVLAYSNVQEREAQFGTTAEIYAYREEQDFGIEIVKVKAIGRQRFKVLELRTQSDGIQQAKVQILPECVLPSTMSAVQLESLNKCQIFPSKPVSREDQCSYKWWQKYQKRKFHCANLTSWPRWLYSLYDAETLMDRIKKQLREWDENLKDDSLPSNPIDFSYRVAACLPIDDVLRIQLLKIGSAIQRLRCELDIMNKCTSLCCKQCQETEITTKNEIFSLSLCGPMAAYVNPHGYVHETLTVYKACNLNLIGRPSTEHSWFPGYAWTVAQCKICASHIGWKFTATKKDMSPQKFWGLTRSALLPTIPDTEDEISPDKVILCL

[12] = target: T2, von Hippel-Lindau disease tumor suppressor/Receptor-interacting serine/threonine-protein kinase 2 (Homo sapiens, UniProt O43353+P40337); assay: Protac activity at VHL/RIPK2 in human THP-1 cells assessed as RIPK2 degradation measured after 16 hrs by Western blot analysis; type: cell-based
[13] = target: T2, von Hippel-Lindau disease tumor suppressor/Receptor-interacting serine/threonine-protein kinase 2; assay: Protac activity at VHL/RIPK2 in human THP-1 cells assessed as RIPK2 degradation at 10 nM measured after 16 hrs by Western blot analysis relative to control; type: cell-based
[14] = target: Receptor-interacting serine/threonine-protein kinase 2 (Homo sapiens, UniProt O43353); assay: Inhibition of RIPK2 (unknown origin) by fluorescence polarization assay
[15] = system: Jurkat; assay: Anticancer activity against human Jurkat cells assessed as cell growth inhibition; type: functional, cell-based
[16] = system: HL-60; assay: Anticancer activity against human HL-60 cells assessed as cell growth inhibition; type: functional, cell-based
[17] = system: MOLT-4; assay: Anticancer activity against human MOLT-4 cells assessed as cell growth inhibition; type: functional, cell-based
[18] = target: von Hippel-Lindau disease tumor suppressor/Histone deacetylase 1/Lysine-specific histone demethylase 1A/REST corepressor 1 (Homo sapiens, UniProt O60341+P40337+Q13547+Q9UKL0); assay: Protac activity at VHL/LSD1/HDAC1/CoREST complex interaction in human ES1 cells assessed as HDAC1 degradation by fluorescence based assay; type: cell-based
[19] = target: von Hippel-Lindau disease tumor suppressor/Histone deacetylase 2/Lysine-specific histone demethylase 1A/REST corepressor 1 (Homo sapiens, UniProt O60341+P40337+Q92769+Q9UKL0); assay: Protac activity at VHL/LSD1/HDAC2/CoREST complex interaction in human ES1 cells assessed as induction of HDAC2 degradation by fluorescence based assay; type: cell-based
Sequence of von Hippel-Lindau disease tumor suppressor/Histone deacetylase 2/Lysine-specific histone demethylase 1A/REST corepressor 1 (P40337 whole entry, looked up, other chains not shown): as the sequence (P40337 whole entry) above
Sequence of von Hippel-Lindau disease tumor suppressor/Histone deacetylase 2/Lysine-specific histone demethylase 1A/REST corepressor 1 (Q92769 whole entry, looked up, other chains not shown): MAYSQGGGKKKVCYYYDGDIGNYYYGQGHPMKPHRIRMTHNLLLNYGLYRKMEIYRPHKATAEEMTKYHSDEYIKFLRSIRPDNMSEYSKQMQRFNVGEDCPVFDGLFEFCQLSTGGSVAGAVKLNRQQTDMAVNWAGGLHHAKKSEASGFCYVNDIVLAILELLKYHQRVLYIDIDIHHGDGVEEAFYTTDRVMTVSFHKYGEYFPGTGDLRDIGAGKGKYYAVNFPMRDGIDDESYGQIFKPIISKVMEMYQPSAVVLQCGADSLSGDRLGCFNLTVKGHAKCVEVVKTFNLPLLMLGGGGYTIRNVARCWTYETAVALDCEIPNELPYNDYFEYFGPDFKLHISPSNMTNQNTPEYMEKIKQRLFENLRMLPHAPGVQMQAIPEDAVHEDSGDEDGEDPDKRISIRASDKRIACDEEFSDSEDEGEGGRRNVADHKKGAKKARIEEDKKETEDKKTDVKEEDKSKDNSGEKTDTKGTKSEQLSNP
Sequence of von Hippel-Lindau disease tumor suppressor/Histone deacetylase 2/Lysine-specific histone demethylase 1A/REST corepressor 1 (Q9UKL0 whole entry, looked up, other chains not shown): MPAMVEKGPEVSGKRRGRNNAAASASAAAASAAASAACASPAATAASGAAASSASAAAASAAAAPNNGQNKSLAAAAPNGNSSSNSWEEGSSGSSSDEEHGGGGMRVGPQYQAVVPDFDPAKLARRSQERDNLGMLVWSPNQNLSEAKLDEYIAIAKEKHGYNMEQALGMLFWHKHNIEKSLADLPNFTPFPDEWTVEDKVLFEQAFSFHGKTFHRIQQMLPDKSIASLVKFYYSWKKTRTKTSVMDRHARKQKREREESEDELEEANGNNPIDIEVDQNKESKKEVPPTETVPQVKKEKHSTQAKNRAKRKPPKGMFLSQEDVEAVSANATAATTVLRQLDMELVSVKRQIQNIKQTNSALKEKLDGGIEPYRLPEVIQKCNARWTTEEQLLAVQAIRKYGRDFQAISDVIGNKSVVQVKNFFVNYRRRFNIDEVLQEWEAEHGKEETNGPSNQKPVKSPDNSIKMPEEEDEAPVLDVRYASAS

[20] = target: von Hippel-Lindau disease tumor suppressor/Histone deacetylase 3/Lysine-specific histone demethylase 1A/REST corepressor 1 (Homo sapiens, UniProt O15379+O60341+P40337+Q9UKL0); assay: Protac activity at VHL/LSD1/HDAC3/CoREST complex interaction in human ES1 cells assessed as induction of HDAC3 degradation by fluorescence based assay; type: cell-based
Sequence of von Hippel-Lindau disease tumor suppressor/Histone deacetylase 3/Lysine-specific histone demethylase 1A/REST corepressor 1 (O15379 whole entry, looked up, other chains not shown): as the sequence (O15379 whole entry) above
Sequence of von Hippel-Lindau disease tumor suppressor/Histone deacetylase 3/Lysine-specific histone demethylase 1A/REST corepressor 1 (P40337 whole entry, looked up, other chains not shown): as the sequence (P40337 whole entry) above
Sequence of von Hippel-Lindau disease tumor suppressor/Histone deacetylase 3/Lysine-specific histone demethylase 1A/REST corepressor 1 (Q9UKL0 whole entry, looked up, other chains not shown): as the sequence (Q9UKL0 whole entry, looked up, other chains not shown) above

**Q.** How did the DC50 [1] turn out when `CN[C@@H](C)C(=O)N[C@H](C(=O)N1Cc2cc(OCCOCCOCCOCCOc3cc4nccc(Nc5ccc6scnc6c5)c4cc3S(=O)(=O)C(C)(C)C)ccc2C[C@H]1C(=O)N[C@@H]1CCCc2ccccc21)C(C)(C)C` was run?
**A.** Its DC50 is 2 nM.

**Q.** For `CC(C)(C)S(=O)(=O)c1cc2c(Nc3ccc4scnc4c3)ccnc2cc1OCCOCCOCCOCCOCC(=O)Nc1cccc2c1CN(C1CCC(=O)NC1=O)C2=O` (stereo not given), which DC50 [2] is on record?
**A.** Its DC50 is 2.5 nM.

**Q.** For `O=C1CCC(N2C(=O)c3cccc(NCCOCCOCCOCCOCCOCCOCCOCCNCCNc4nonc4/C(=N/O)Nc4ccc(F)c(Br)c4)c3C2=O)C(=O)N1` (stereo not given), which Emax [3] is on record?
**A.** Its Emax is 93%.

**Q.** How did the IC50 [4] turn out when `CC1(NCc2cn(CCOCCOCCOCCOCCNc3cccc4c3C(=O)N(C3CCC(=O)NC3=O)C4=O)nn2)CCN(c2cnc(-c3cccc(Cl)c3Cl)c(N)n2)CC1` (stereo not given) was run?
**A.** The IC50 was 4.3 nM.

**Q.** With `CCCNNC(=O)c1ccc(-c2ccc(NC(=O)CCCCCCC(=O)N[C@H](C(=O)N3C[C@H](O)C[C@H]3C(=O)N[C@@H](C)c3ccc(-c4scnc4C)cc3)C(C)(C)C)cc2)cc1` as the molecule, how does the DC50 [5] read?
**A.** The DC50 was 42 nM.

**Q.** What about the Activity [6] of the same molecule?
**A.** The Activity was 70%.

**Q.** `CC(C)Nc1cc(-n2ccc3cc(C#N)cnc32)ncc1C(=O)N[C@H]1CC[C@H](C(=O)NCCOCCNC(=O)COc2cccc3c2C(=O)N(C2CCC(=O)NC2=O)C3=O)CC1` (stereo not given in full) was tested. Which DC50 [7] did it give?
**A.** Its DC50 is 405 nM.

**Q.** What about the Kd [8] of the same molecule?
**A.** Its Kd is 490 nM.

**Q.** Which Activity [9] does the source give for `O=C1CCC(N2Cc3c(NCCCCCCCCCCCNC(=O)c4cc(Cc5n[nH]c(=O)c6ccccc56)ccc4F)cccc3C2=O)C(=O)N1` (stereo not given) here?
**A.** The Activity was 80%.

**Q.** What does the source list for `CN1C[C@H](Nc2cnn(C)c(=O)c2Br)C[C@H](c2ccc(C(=O)N(C)CCCN(C)c3ccc(CCCOc4cccc5c4C(=O)N(C4CCC(=O)NC4=O)C5=O)cc3)cc2)C1` (stereo not given in full)?
**A.** Activity [10]: 50%; Activity [11]: 50%

**Q.** With `C=C([C@@H](NC(=O)COCCOCCOCCOCCOc1cc2nccc(Nc3ccc4scnc4c3)c2cc1S(=O)(=O)C(C)(C)C)C(C)(C)C)N1C[C@H](O)C[C@H]1C(=O)NCc1ccc(-c2scnc2C)cc1` as the molecule, how does the DC50 [12] read?
**A.** Its DC50 is 1.4 nM.

**Q.** And the Emax [13]?
**A.** Its Emax is > 95%.

**Q.** What about the IC50 [14] of the same molecule?
**A.** The IC50 was 10 nM.

**Q.** Which IC50 [15] does the source give for `O=C(/C=C/c1cccnc1)NCCCCC1CCN(C(=O)c2ccc(N3CCN(CCCCCC#Cc4cccc5c4CN(C4CCC(=O)NC4=O)C5=O)CC3)cc2)CC1` (stereo not given) here?
**A.** The IC50 was 4.46 nM.

**Q.** And the IC50 [16]?
**A.** The IC50 was 8.56 nM.

**Q.** What about the IC50 [17] of the same molecule?
**A.** Its IC50 is 2.96 nM.

**Q.** `Cc1ncsc1-c1ccc(CNC(=O)[C@@H]2C[C@@H](O)CN2C(=O)[C@@H](NC(=O)CCCCCCCCCCC(=O)Nc2ccc(C(=O)Nc3ccccc3N)cc2)C(C)(C)C)cc1` was tested. Which IC50 [18] did it give?
**A.** The IC50 was 500 nM.

**Q.** What about the IC50 [19] of the same molecule?
**A.** The IC50 was 500 nM.

**Q.** What about the IC50 [20] of the same molecule?
**A.** The IC50 was 500 nM.
